Patent US11046709B2, “Fused 1,4-diazepines as BET bromodomain inhibitors” (THE REGENTS OF THE UNIVERSITY OF MICHIGAN, priority 2017, dated 2021)
Where two headings read alike, the source gives them in different places.

Assays:
MDA-MB-231 = test: Cell growth inhibition, 4-day proliferation assay, MDA-MB-231; format: cell-based; conditions: Homo sapiens, MDA-MB-231, 96 h, read-out: Cell IC50 (nM) MDA-MB-231
Protocol: (§1) The effect of representative Compounds of the Disclosure on cell viability was determined in a 4-day proliferation assay. Cells were maintained in the appropriate culture medium with 100/0 FBS at 37° C. and an atmosphere of 5% CO2. All the cell lines were used within three months of thawing fresh vials.
(§2) In general, cells were seeded in 96-well flat bottom (Corning COSTAR, Corning, N.Y., cat #3595) or white opaque cell culture plates (BD Falcon, cat #353296) at a density of 3,000-10,000 cells/well in 75 μl of culture medium. Compounds were serially diluted in the appropriate medium, and 75 μl of the diluted compounds were added to the appropriate wells of the cell plate. After the addition of compounds, the cells were incubated at 37° C. in an atmosphere of 5% CO2 for 4 days. Cell viability was determined using the CellTiter-Glo® Luminescent Cell Viability Assay Kit (Promega, Madison, Wis.) for leukemia cells and WST (2-(2-methoxy-4-nitrophenyl)-3-(4-nitrophenyl)-5-(2,4-disulfophenyl)-2H-tetrazolium, monosodium salt) Cell Counting-8 Kit (Dojindo Molecular Technologies, Inc., Rockville, Md.) for adherent cells according to the manufacturers' instructions.
(§3) For WST assay (adherent cells), WST-8 reagent was added to each well at a final concentration of 10% (v/v), and then the plates were incubated at 37° C. for 1-2 hours for color development. The absorbance was measured at 450 nm using a SPECTRAmax PLUS plate reader (Molecular Devices, Sunnyvale, Calif.). The readings were normalized to the DMSO-treated cells and the half maximal inhibitory concentration (IC50) was calculated by nonlinear regression (four parameters sigmoid fitted with variable slope, least squares fit, and no constraint) analysis using the GraphPad Prism 5 software (GraphPad Software, La Jolla, Calif.).
(§4) For CellTiter-Glo assay (suspension cells), 100 μl of CellTiter-Glo® Reagent was added to each well, and then the plates were incubated at room temperature for 10-20 minutes. The luminescent signal was measured using a Tecan Infinite M1000 multimode microplate reader (Tecan, Morrisville, N.C.). The readings were normalized to the DMSO-treated cells and the IC50 was calculated by nonlinear regression (four parameters sigmoid fitted with variable slope, least squares fit, and no constraint) analysis using the GraphPad Prism 5 software. See US 2014/0256706.
(§5) For a number of representative compounds in Table 5, their IC50 values in cell growth inhibition activity in the RS4;11 and MOLM-13 human leukemia cell lines and the MDA-MB-231 breast cancer cell line were evaluated using the WST-8 assay described in EXAMPLE 7, with the data shown in Table 7.

recombinant BRD4 BD2 = biological target: T1, recombinant BRD4 BD2 (Homo sapiens, UniProt O60885); test: Competitive fluorescence-polarization (FP) binding assay, BRD4 BD2
T1 construct: for recombinant BRD4 BD1 and BRD4 BD2 proteins
Protocol: Fluorescence Polarization (FP) competitive binding studies were carried out using a FAM labeled fluorescent probe, see, e.g., Cpd. No. 350 of US 2014/0256706, to determine binding affinities of representative Compounds of the Disclosure for recombinant BRD4 BD1 and BRD4 BD2 proteins. Equilibrium dissociation constants (Kd) values of the fluorescent probe to BRD4 BD1 and BD2 proteins were determined from protein saturation experiments by monitoring the total fluorescence polarization of mixtures composed with the fluorescent probe at a fixed concentration and proteins with increasing concentrations up to full saturation. Serial dilutions of testing proteins were mixed with the fluorescent probe to a final volume of 200 μl in the assay buffer (100 mM phosphate buffer, pH=6.5, 0.01% Triton X-100 (Sigma, 282103) being added right before assays). Final fluorescent probe concentration was 1.5 nM for both proteins. Plates were incubated at room temperature for 30 minutes with gentle shaking to assure equilibrium. FP values in millipolarization units (mP) were measured using the Infinite M-1000 plate reader (Tecan U.S., Research Triangle Park, N.C.) in Microfluor 1 96-well, black, round-bottom plates (Thermo Scientific, Waltham, Mass.) at an excitation wavelength of 485 nm and an emission wavelength of 530 nm. Kd values of the fluorescent probe, which were calculated by fitting the sigmoidal dose-dependent FP increases as a function of protein concentrations using Graphpad Prism 6.0 software (Graphpad Software, San Diego, Calif.), are 5.5 and 3.0 nM to BDR4 BD1 and 2, respectively.
The IC50 and Ki values of compounds were determined in a competitive binding experiment. See US 2014/0256706. Mixtures of 10 μl of the tested compounds in assay buffer with 40% Ethylene Glycol and 190 μl of preincubated protein/probe complex solution in the assay buffer (100 mM potassium phosphate, pH 6.5, 0.01% Triton X-100) were added into assay plates which were incubated at room temperature for 30 minutes with gentle shaking. Final concentrations of proteins were 10 and 6 nM in assays for BRD4 BD1 and BD2, respectively. Final probe concentration is 1.5 nM in both assays. Negative controls containing protein/probe complex only (equivalent to 0% inhibition), and positive controls containing only free probes (equivalent to 100% inhibition), were included in each assay plate. FP values were measured as described above. IC50 values were determined by nonlinear regression fitting of the competition curves. Instead of being calculated from IC50 values as described before. Ki values of competitive inhibitors were obtained directly by nonlinear regression fitting as well, based upon the Kd values of the probe to different proteins, and concentrations of the proteins and probes in the competitive assays (US 2014/0256706; Wang, FEBS Lett. 360:111 (1995); Zhang et al., Analytical Biochemistry, 331:138 (2004)).
Representative compounds in Table 5 were evaluated for their binding affinities to BRD4 BD1 and BD2 proteins using the Competitive Fluorescence-Polarization (FP) Assays described in Example 6, with the data included in Table 6.

MOLM-13 = test: Cell growth inhibition, 4-day proliferation assay, MOLM-13; format: cell-based; conditions: Homo sapiens, MOLM-13, 96 h, read-out: Cell IC50 (nM) MOLM13
Protocol: as §1, §2, §3, §4, §5

[1] = 4-day proliferation assay, Table 4

SMILES	IC50 (MDA-MB-231)	IC50 (recombinant BRD4 BD2)	IC50 (MOLM-13)	IC50 (MDA-MB-231; [1])	IC50 (recombinant BRD4 BD2; competitive FP, Table 3, read-out: Binding Affinity BRD4-BD2 IC50)	IC50 (MOLM-13; [1])
Cc1c(C#Cc2ccccn2)sc2c1C(c1ccc(Cl)cc1)=N[C@@H](C)c1nnc(C)n1-2 [Cpd. No. 2, (S)-4-(4-chlorophenyl)-3,6,9-trimethyl-2-(pyridin-2-ylethynyl)-6H-thieno[3,2-f][1,2,4]triazolo[4,3-a][1,4]diazepine]	31 nM	14.5 nM	15.7 ± 0.43 nM	–	–	–
Cc1c(C#Cc2cccnc2)sc2c1C(c1ccc(Cl)cc1)=NCc1nnc(C)n1-2 [Cpd. No. 3, 4-(4-chlorophenyl)-3,9-dimethyl-2-(pyridin-3-ylethynyl)-6H-thieno[3,2-f][1,2,4]triazolo[4,3-a][1,4]diazepine]	151 ± 19 nM	124 nM	145 ± 13.7 nM	–	–	–
Cc1c(C#Cc2cccnc2)sc2c1C(c1ccc(Cl)cc1)=N[C@@H](C)c1nnc(C)n1-2 [Cpd. No. 4, (S)-4-(4-chlorophenyl)-3,6,9-trimethyl-2-(pyridin-3-ylethynyl)-6H-thieno[3,2-f][1,2,4]triazolo[4,3-a][1,4]diazepine]	2.63 ± 0.6 nM	12.5 nM	10.5 ± 0.24 nM	–	–	–
Cc1c(C#Cc2cncnc2)sc2c1C(c1ccc(Cl)cc1)=NCc1nnc(C)n1-2 [Cpd. No. 5, 4-(4-chlorophenyl)-3,9-dimethyl-2-(pyrimidin-5-ylethynyl)-6H-thieno[3,2-f][1,2,4]triazolo[4,3-a][1,4]diazepine]	214 ± 35.2 nM	305 nM	176 ± 25.5 nM	–	–	–
Cc1c(C#Cc2cncnc2)sc2c1C(c1ccc(Cl)cc1)=N[C@@H](C)c1nnc(C)n1-2 [Cpd. No. 6, (S)-4-(4-chlorophenyl)-3,6,9-trimethyl-2-(pyrimidin-5-ylethynyl)-6H-thieno[3,2-f][1,2,4]triazolo[4,3-a][1,4]diazepine]	17.8 ± 19 nM	16 nM	15.6 ± 1.7 nM	–	–	–
Cc1c(C#Cc2ccncc2)sc2c1C(c1ccc(Cl)cc1)=NCc1nnc(C)n1-2 [Cpd. No. 7, 4-(4-chlorophenyl)-3,9-dimethyl-2-(pyridin-4-ylethynyl)-6H-thieno[3,2-f][1,2,4]triazolo[4,3-a][1,4]diazepine]	660 ± 83.6 nM	1670 nM	144 ± 16.3 nM	–	–	–
Cc1c(C#Cc2ccncc2)sc2c1C(c1ccc(Cl)cc1)=N[C@@H](C)c1nnc(C)n1-2 [Cpd. No. 8, (S)-4-(4-chlorophenyl)-3,6,9-trimethyl-2-(pyridin-4-ylethynyl)-6H-thieno[3,2-f][1,2,4]triazolo[4,3-a][1,4]diazepine]	64.5 ± 22.7 nM	10.4 nM	13.5 ± 0.8 nM	–	–	–
Cc1c(C#CCO)sc2c1C(c1ccc(Cl)cc1)=NCc1nnc(C)n1-2 [Cpd. No. 9, 3-(4-(4-chlorophenyl)-3,9-dimethyl-6H-thieno[3,2-f][1,2,4]triazolo[4,3-a][1,4]diazepin-2-yl)prop-2-yn-1-ol]	412 nM	126 nM	215 nM	–	–	–
Cc1c(C#CCO)sc2c1C(c1ccc(Cl)cc1)=N[C@@H](C)c1nnc(C)n1-2 [Cpd. No. 10, (S)-3-(4-(4-chlorophenyl)-3,6,9-trimethyl-6H-thieno[3,2-f][1,2,4]triazolo[4,3-a][1,4]diazepin-2-yl)prop-2-yn-1-ol]	31.8 nM	11.8 nM	30.5 nM	–	–	–
Cc1c(C#CCCCO)sc2c1C(c1ccc(Cl)cc1)=N[C@@H](C)c1nnc(C)n1-2 [Cpd. No. 11, (S)-5-(4-(4-chlorophenyl)-3,6,9-trimethyl-6H-thieno[3,2-f][1,2,4]triazolo[4,3-a][1,4]diazepin-2-yl)pent-4-yn-1-ol]	< 1.7 nM	7.22 nM	6.87 nM	–	–	–
Cc1c(C#Cc2cnn(CCCO)c2)sc2c1C(c1ccc(Cl)cc1)=N[C@@H](C)c1nnc(C)n1-2 [Cpd. No. 12, (S)-3-(4-((4-(4-chlorophenyl)-3,6,9-trimethyl-6H-thieno[3,2-f][1,2,4]triazolo[4,3-a][1,4]diazepin-2-yl)ethynyl)-1H-pyrazol-1-yl)propan-1-ol]	31.5 nM	10.8 nM	3.74 nM	–	–	–
Cc1c(C#Cc2ccc(CCCCO)cn2)sc2c1C(c1ccc(Cl)cc1)=N[C@@H](C)c1nnc(C)n1-2 [Cpd. No. 13]	–	–	–	84.4 nM	11.1 nM	23 nM
Cc1c(C#Cc2cnn(CC(=O)O)c2)sc2c1C(c1ccc(Cl)cc1)=N[C@@H](C)c1nnc(C)n1-2 [Cpd. No. 14, (S)-2-(4-((4-(4-chlorophenyl)-3,6,9-trimethyl-6H-thieno[3,2-f][1,2,4]triazolo[4,3-a][1,4]diazepin-2-yl)ethynyl)-1H-pyrazol-1-yl)acetic acid]	965 nM	12.3 nM	964 nM	–	–	–
COCC#Cc1sc2c(c1C)C(c1ccc(Cl)cc1)=N[C@@H](C)c1nnc(C)n1-2 [Cpd. No. 15, (S)-4-(4-chlorophenyl)-2-(3-methoxyprop-1-yn-1-yl)-3,6,9-trimethyl-6H-thieno[3,2-f][1,2,4]triazolo[4,3-a][1,4]diazepine]	51.1 nM	11.3 nM	25.6 nM	–	–	–
Cc1c(C#CCN(C)C)sc2c1C(c1ccc(Cl)cc1)=N[C@@H](C)c1nnc(C)n1-2 [Cpd. No. 16, (S)-3-(4-(4-chlorophenyl)-3,6,9-trimethyl-6H-thieno[3,2-f][1,2,4]triazolo[4,3-a][1,4]diazepin-2-yl)-N,N-dimethylprop-2-yn-1-amine]	40.9 nM	58.9 nM	27.9 nM	–	–	–
Cc1c(C#Cc2ccnn2C)sc2c1C(c1ccc(Cl)cc1)=N[C@@H](C)c1nnc(C)n1-2 [Cpd. No. 17, (S)-4-(4-chlorophenyl)-3,6,9-trimethyl-2-((1-methyl-1H-pyrazol-5-yl)ethynyl)-6H-thieno[3,2-f][1,2,4]triazolo[4,3-a][1,4]diazepine]	14.6 nM	14.4 nM	23.7 nM	–	–	–
Cc1c(C#Cc2ccc(N)nc2)sc2c1C(c1ccc(Cl)cc1)=N[C@@H](C)c1nnc(C)n1-2 [Cpd. No. 18, (S)-5-((4-(4-chlorophenyl)-3,6,9-trimethyl-6H-thieno[3,2-f][1,2,4]triazolo[4,3-a][1,4]diazepin-2-yl)ethynyl)pyridin-2-amine]	2.44 nM	8.84 nM	9.63 nM	–	–	–
